Patent US4808618A, “Substituted 1,3-dialkylpyrido[4,3-d]pyrimidine-2,4-diones” (Nippon Zoki Pharmaceutical Co., Ltd., priority 1986, dated 1989)

Tests used:
[1] = Acute toxicity test (oral, LD50 by Litchfield-Wilcoxon's method); details: mouse, in vivo, ICR-strain male mice, groups of 5, mortality for 14 days
Method: The test compounds were orally administered to groups of 5 ICR-strainmale mice. LD50 value of the compound of the present invention was calculated by the Litchfield-Wilcoxon's method based on mortality for 14 days after drug administration.

[2] = test system: PCA (Passive Cutaneous Anaphylaxis) reaction; test: PCA (Passive Cutaneous Anaphylaxis) reaction in rats, anti-allergic effect; assay type: in vivo, rat (Wister-strain; details: 20 mg/kg oral, 1 hour before challenge; Wister-strain male rats; dye absorbance at 620 nm
Method: PCA (Passive Cutaneous Anaphylaxis) reaction in rats was taken as an index to an anti-allergic effect of the compound of the present invention.
In order to perform sensitization, anti-DNP-Asc (dinitrophenylated Ascaris extracts) serum diluted with saline was injected intradermally at 4 sites on the shaved back of groups of 6 Wister-strain male rats (6 weeks of age). 1 hour after oral administration of the test drug, the mixture of equivalent amount of DNP-Asc (5 mg/ml) and 2% Evans blue were intravenously injected to generate PCA reaction. 30 minutes thereafter, rats were killed by decapitation and exsanguinated. The skin was opened in order to evaluate the leakage of blue dye. The obtained skin was dissolved in 2N potassium hydroxide, then 2N phosphoric acid and acetone were added thereto. The amount of dye was determined by measurement of absorbance at 620 nm after centrifugation.

Structure (SMILES) | LD50 at 336 h [1] [mg/kg] | Inhibition (PCA reaction) [2] [%]
Cn1c(=O)c2c(N)nccc2n(C)c1=O [Compound 3, 5-amino-1,3-dimethylpyrido[4,3-d]pyrimidine-2,4-dione] | 710 | 77.3
CC(C)Nc1nccc2c1c(=O)n(C)c(=O)n2C [Compound 8, 5-isopropylamino-1,3-dimethylpyrido[4,3-d]pyrimidine-2,4-dione] | 700 | 73.4
Cn1c(=O)c2cnccc2n(C)c1=O [Compound 1, 1,3-dimethylpyrido[4,3-d]pyrimidine-2,4-dione] | 400 | 85.3
Cn1c(=O)c2[nH]cnc2n(C)c1=O [Theophylline, reference compound] | – | 78.7
CCn1c(=O)c2c(NC)nccc2n(CC)c1=O [Compound 7, 5-methylamino-1,3-diethylpyrido[4,3-d]pyrimidine-2,4-dione] | – | 72.7
CCn1c(=O)c2c(N)nccc2n(CC)c1=O [Compound 4, 5-amino-1,3-diethylpyrido[4,3-d]pyrimidine-2,4-dione] | – | 89.3
CNc1nccc2c1c(=O)n(C)c(=O)n2C [Compound 6, 5-methylamino-1,3-dimethylpyrido[4,3-d]pyrimidine-2,4-dione] | 720 | 92.0
